# Data as given in patent US20250090505A1, “Methods for Preventing Ectopic Brain Mineralization in Alzheimer's Disease and Dementias” (Tzerma LLC, priority 2022, published 2025).
# B1: TNAP: human tissue nonspecific alkaline phosphatase, element that triggers biomineralization (protein, UniProt P05186 18-501, looked up)
# Alkaline phosphatase, …: LVPEKEKDPKYWRDQAQETLKYALELQKLNTNVAKNVIMFLGDGMGVSTVTAARILKGQLHHNPGEETRLEMDKFPFVALSKTYNTNAQVPDSAGTATAYLCGVKANEGTVGVSAATERSRCNTTQGNEVTSILRWAKDAGKSVGIVTTTRVNHATPSAAYAHSADRDWYSDNEMPPEALSQGCKDIAYQLMHNIRDIDVIMGGGRKYMYPKNKTDVEYESDEKARGTRLDGLDLVDTWKSFKPRYKHSHFIWNRTELLTLDPHNVDYLLGLFEPGDMQYELNRNNVTDPSLSEMVVVAIQILRKNPKGFFLLVEGGRIDHGHHEGKAKQALHEAVEMDRAIGQAGSLTSSEDTLTVVTADHSHVFTFGGYTPRGNSIFGLAPMLSDTDKKPFTAILYGNGPGYKVVGGERENVSMVDYAHNNYQAQSAVPLRHETHGGEDVAVFSKGPMAHLLHGVHEQNYVPHVMAYAACIGANLGHCAPAS
# Columns and labels:
# [1] = test system: HCN-2 cells; test: Inhibition of biomineralization (hydroxyapatite production) by HCN-2 cells, Alizarin Red staining; type: cell-based, human; settings: for effect on alkaline phosphatase and alpha-glycerophosphate triggered biomineralization / hydroxyapatite production by HCN-2 cells, each compound alone: FIGS. 5A-5B
# [2] = references 30-31; cited from earlier work
# [3] = test system: in vitro biomineralization reaction; test: Titration of the elements that trigger the in vitro biomineralization reaction; type: cell-based; settings: titration assays, calcium, αGP and TNAP concomitantly present
# Description: It is determined herein that the biomineralization reaction is dose-dependent on calcium, alpha-glycerophosphate and alkaline phosphatase. It is known that the physiological concentration of alkaline phosphatase in the brain is 1-2 international units per liter (IU/L), which is substantially lower than alkaline phosphatase in peripheral blood serum (44 to 147 IU/L)) (35, 36). […] The minimum dose of calcium, αGP, and TNAP that promptly triggers in vitro biomineralization reaction is 0.45 mM, 1.0 mM, and 100 IU/L, respectively (22).
# To measure the physiological glycerophosphate, a method to quantify this organic compound in peripheral blood serum was invented The method of quantifying alpha-glycerophosphate is disclosed in international publication WO 2021/076851, the entirety of which is hereby incorporated by reference. […] The physiological concentration of alpha-glycerophosphate varied substantially amid adult individuals with a mean value of 2.90 mM and standard deviation of 1.98 (median=2.42 mM, max=9.60 mM, and min=0.15 mM). The wide range of alpha-glycerophosphate in blood is likely attributed to personal diet, e.g., a fatty diet and gut microbiome, and physical activity because alpha-glycerophosphate is a metabolite derived from fat to energize mitochondria (37). Overall, 83% of tested samples contained alpha-glycerophosphate greater than 1.0 mM, which is sufficient to trigger biomineralization when calcium and alkaline phosphatase are concomitantly present.
Molecule,effect on alkaline phosphatase and alpha-glycerophosphate triggered biomineralization [1],"hydroxyapatite production by HCN-2 cells, each compound alone ([1]; in vitro)",crossing of the blood-brain barrier [2],minimum dose that promptly triggers in vitro biomineralization reaction [3],also measured
"Cl.c1ccc([C@H]2CN3CCSC3=N2)cc1 [Levamisole, (−)-(s)-2,3,5,6-tetrahydro-6-phenylimidazo(2,1-b)thiazole mono hydrochloride]",inhibitory effects,entirely cease,cross the blood-brain barrier,–,"concentration of Levamisole at which biomineralization is inhibited ([1]; HCN-2 cells, alpha-glycerophosphate 2 mM, recombinant human TNAP 1,000 U/L): 1 mM"
"O=C(O)P(=O)(O)O [Foscarnet, phosphonoformic acid]",inhibitory effects,entirely cease,cross the blood-brain barrier,–,"concentration of Foscarnet that can competitively inhibit biomineralization ([1]; in vitro, HCN-2 cells, MEMα/10% FBS with αGP and TNAP, 7 days, Alizarin Red (FIGS. 5A-5B)): at least 0.02 mM"
"O=P(O)(O)OCC(O)CO (stereo not drawn) [αGP, alpha-glycerophosphate]",–,–,–,1.0 mM,minimum dose that promptly triggers in vitro biomineralization reaction ([3]; listed as alpha-glycerophosphate): ≥ 1.0 mM
[Ca+2] [calcium],–,–,–,0.45 mM,–
B1,–,–,–,100 IU/L,–
